Assay results as given in patent US12286455B2, “Anthelmintic depsipeptide compounds” (BOEHRINGER INGELHEIM ANIMAL HEALTH USA INC., priority 2015, dated 2025).

Legend:
[1] = test system: Dirofilaria immitis R isolate (reduced sensitivity to macrocyclic lactones); experiment: Method D study 1: efficacy against induced D. immitis infection in beagle dogs (R isolate); type: in vivo; conditions: beagles
[2] = test system: Dirofilaria immitis S isolate (sensitive to macrocyclic lactones); experiment: Method D study 2: efficacy against induced D. immitis infection in beagle dogs (S isolate); type: in vivo; conditions: beagles
[3] = oral solution 2.5 mg/kg + ivermectin 6 μg/kg, days 0, 32, 60, 90 & 119, necropsy Day 150

| SMILES | Efficacy [1, 3] | also measured |
| --- | --- | --- |
| CC(C)C[C@H]1C(=O)O[C@H](C)C(=O)N(C)[C@@H](CC(C)(C)F)C(=O)O[C@H](Cc2ccc(C(F)(F)F)cc2)C(=O)N(C)[C@@H](CC(C)C)C(=O)O[C@H](C)C(=O)N(C)[C@@H](CC(C)(C)F)C(=O)O[C@H](Cc2ccc(C(F)(F)F)cc2)C(=O)N1C [Compound 4-18] | 100% |  |
| CC(C)C[C@H]1C(=O)O[C@H](C)C(=O)N(C)[C@@H](CC(C)(C)F)C(=O)O[C@H](Cc2ccc(N3CCOCC3)cc2)C(=O)N(C)[C@@H](CC(C)C)C(=O)O[C@H](C)C(=O)N(C)[C@@H](CC(C)(C)F)C(=O)O[C@H](Cc2ccc(N3CCOCC3)cc2)C(=O)N1C [Compound 6-18] | 100% |  |
| CC(C)C[C@H]1C(=O)O[C@H](Cc2ccc(C3CCOCC3)cc2)C(=O)N(C)[C@@H](CC(C)C)C(=O)O[C@H](C)C(=O)N(C)[C@@H](CC(C)C)C(=O)O[C@H](Cc2ccc(C3CCOCC3)cc2)C(=O)N(C)[C@@H](CC(C)C)C(=O)O[C@H](C)C(=O)N1C [Compound 7-27] | 100% |  |
| CC(C)C[C@H]1C(=O)O[C@H](Cc2ccc(N3CCOCC3)cc2)C(=O)N(C)[C@@H](CC(C)C)C(=O)O[C@H](C)C(=O)N(C)[C@@H](CC(C)C)C(=O)O[C@H](Cc2ccc(N3CCOCC3)cc2)C(=O)N(C)[C@@H](CC(C)C)C(=O)O[C@H](C)C(=O)N1C [emodepside, reference compound] | 98.8% | Efficacy ([1]; oral solution 2.5 mg/kg + ivermectin 6 μg/kg, days 0, 32, 60, 90 & 119, necropsy Day 150, listed as Emodepside): 98.8% |
| CC(C)C[C@H]1C(=O)O[C@H](C)C(=O)N(C)[C@@H](CC(C)(C)F)C(=O)O[C@H](Cc2ccc(C3CCOCC3)cc2)C(=O)N(C)[C@@H](CC(C)C)C(=O)O[C@H](C)C(=O)N(C)[C@@H](CC(C)(C)F)C(=O)O[C@H](Cc2ccc(C3CCOCC3)cc2)C(=O)N1C [Compound 7-18] |  | Efficacy ([1]; oral solution 1.0 mg/kg + ivermectin 6 μg/kg, days 0, 32, 60, 90 & 119, necropsy Day 150): 100%; Efficacy ([2]; oral solution 0.5 mg/kg, days 0, 30, 60, 90 & 120, necropsy Day 155): 100%; Efficacy ([2]; oral solution 2.5 mg/kg, days 0, 30, 60 & 154, necropsy Day 155): 100% |
